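Compound exposure: 48 hours, 5 concentrations, 96-well plates. At the GI50, growth is halved.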 Active and inactive are the calls of the source. Cut-off read from the data, not from the text of the source: active = GI50 up to about 1.1 µM and inactive = higher.
Assays:
Assay in all cases: NCI tumour cell line growth inhibition, 48 h
SW-620 = tested on: SW-620
KM12 = tested on: KM12
SNB-19 = tested on: SNB-19
IGROV-1 = tested on: IGROV-1
M14 = tested on: M14
MDA-N = tested on: MDA-N
OVCAR-5 = tested on: OVCAR-5
A498 = tested on: A498
RPMI-8226 = tested on: RPMI-8226
Malme-3M = tested on: Malme-3M
NCI-H522 = tested on: NCI-H522
OVCAR-4 = tested on: OVCAR-4
SF-268 = tested on: SF-268
SR = tested on: SR
SF-295 = tested on: SF-295
OVCAR-8 = tested on: OVCAR-8
HCT-116 = tested on: HCT-116
SN12C = tested on: SN12C
NCI-H226 = tested on: NCI-H226
COLO 205 = tested on: COLO 205
A549 = tested on: A549
MOLT-4 = tested on: MOLT-4
EKVX = tested on: EKVX
SF-539 = tested on: SF-539
HOP-62 = tested on: HOP-62
786-0 = tested on: 786-0
CCRF-CEM = tested on: CCRF-CEM
RXF 393 = tested on: RXF 393
HCT-15 = tested on: HCT-15
DU-145 = tested on: DU-145
NCI/ADR-RES = tested on: NCI/ADR-RES
MDA-MB-435 = tested on: MDA-MB-435
NCI-H23 = tested on: NCI-H23
HCC 2998 = tested on: HCC 2998
LOX IMVI = tested on: LOX IMVI
HOP-92 = tested on: HOP-92
SK-MEL-5 = tested on: SK-MEL-5
HL-60 = tested on: HL-60
UACC-257 = tested on: UACC-257
PC-3 = tested on: PC-3
UO-31 = tested on: UO-31
ACHN = tested on: ACHN
SK-MEL-28 = tested on: SK-MEL-28
SNB-75 = tested on: SNB-75
TK-10 = tested on: TK-10
UACC-62 = tested on: UACC-62
CAKI-1 = tested on: CAKI-1
OVCAR-3 = tested on: OVCAR-3
NCI-H460 = tested on: NCI-H460
MDA-MB-231 = tested on: MDA-MB-231
U-251 = tested on: U-251
K562 = tested on: K562
HT-29 = tested on: HT-29
SK-OV-3 = tested on: SK-OV-3
MCF7 = tested on: MCF7
Hs-578T = tested on: Hs-578T
T47D = tested on: T47D
SK-MEL-2 = tested on: SK-MEL-2

CN(C)c1n/c(=N/Cc2cccs2)ss1
GI50 (SW-620): > 10 µM (inactive)
GI50 (KM12): > 10 µM (inactive)
GI50 (SNB-19): > 10 µM (inactive)
GI50 (IGROV-1): > 10 µM (inactive)
GI50 (M14): > 10 µM (inactive)
GI50 (MDA-N): > 10 µM (inactive)
GI50 (OVCAR-5): > 10 µM (inactive)
GI50 (A498): > 10 µM (inactive)
GI50 (RPMI-8226): > 3.04 µM (inactive)
GI50 (Malme-3M): > 10 µM (inactive)
GI50 (NCI-H522): 2.11 µM (inactive)
GI50 (OVCAR-4): > 10 µM (inactive)
GI50 (SF-268): > 10 µM (inactive)
GI50 (SR): 0.573 µM (active)
GI50 (SF-295): > 10 µM (inactive)
GI50 (OVCAR-8): > 10 µM (inactive)
GI50 (HCT-116): > 10 µM (inactive)
GI50 (SN12C): > 10 µM (inactive)
GI50 (NCI-H226): > 10 µM (inactive)
GI50 (COLO 205): > 10 µM (inactive)
GI50 (A549): > 10 µM (inactive)
GI50 (MOLT-4): 1.72 µM (inactive)
GI50 (EKVX): > 10 µM (inactive)
GI50 (SF-539): > 10 µM (inactive)
GI50 (HOP-62): > 10 µM (inactive)
GI50 (786-0): 9.98 µM (inactive)
GI50 (CCRF-CEM): 0.173 µM (active)
GI50 (RXF 393): > 10 µM (inactive)
GI50 (HCT-15): > 10 µM
GI50 (DU-145): > 10 µM (inactive)
GI50 (NCI/ADR-RES): > 10 µM (inactive)
GI50 (MDA-MB-435): > 10 µM (inactive)
GI50 (NCI-H23): > 10 µM (inactive)
GI50 (HCC 2998): > 10 µM (inactive)
GI50 (LOX IMVI): > 5.62 µM (inactive)
GI50 (HOP-92): > 10 µM (inactive)
GI50 (SK-MEL-5): > 10 µM (inactive)
GI50 (HL-60): 1.35 µM (inactive)
GI50 (UACC-257): > 10 µM (inactive)
GI50 (PC-3): > 10 µM (inactive)
GI50 (UO-31): > 10 µM (inactive)
GI50 (ACHN): > 10 µM (inactive)
GI50 (SK-MEL-28): > 10 µM (inactive)
GI50 (SNB-75): > 10 µM (inactive)
GI50 (TK-10): > 10 µM (inactive)
GI50 (UACC-62): > 10 µM (inactive)
GI50 (CAKI-1): > 10 µM (inactive)
GI50 (OVCAR-3): > 10 µM (inactive)
GI50 (NCI-H460): > 10 µM (inactive)
GI50 (MDA-MB-231): > 10 µM (inactive)
GI50 (U-251): > 10 µM (inactive)
GI50 (K562): 3.4 µM (inactive)
GI50 (HT-29): > 10 µM (inactive)
GI50 (SK-OV-3): > 10 µM (inactive)
GI50 (MCF7): > 10 µM (inactive)
GI50 (Hs-578T): > 10 µM (inactive)
GI50 (T47D): > 10 µM (inactive)

CCCCC1Cc2ccccc2-c2nc3ccccc3n21 (stereo not drawn)
GI50 (SW-620): 16.4 µM (inactive)
GI50 (KM12): 15.4 µM (inactive)
GI50 (IGROV-1): 15.8 µM (inactive)
GI50 (M14): 18.1 µM (inactive)
GI50 (MDA-N): 15.1 µM (inactive)
GI50 (OVCAR-5): 16 µM (inactive)
GI50 (A498): 16.7 µM (inactive)
GI50 (RPMI-8226): 12.1 µM (inactive)
GI50 (NCI-H522): 13 µM (inactive)
GI50 (OVCAR-4): 12.9 µM (inactive)
GI50 (SF-268): 17.3 µM (inactive)
GI50 (SR): 5.57 µM (inactive)
GI50 (SF-295): 15 µM (inactive)
GI50 (OVCAR-8): 18 µM (inactive)
GI50 (HCT-116): 12.6 µM (inactive)
GI50 (NCI-H226): 19.4 µM (inactive)
GI50 (MOLT-4): 13.6 µM (inactive)
GI50 (EKVX): 21 µM (inactive)
GI50 (SF-539): 19.6 µM (inactive)
GI50 (HOP-62): 19.1 µM (inactive)
GI50 (786-0): 25.2 µM (inactive)
GI50 (CCRF-CEM): 0.0153 µM (active)
GI50 (RXF 393): 15.5 µM (inactive)
GI50 (HCT-15): 12.6 µM
GI50 (DU-145): 18.4 µM (inactive)
GI50 (NCI/ADR-RES): 15.7 µM (inactive)
GI50 (MDA-MB-435): 17.1 µM (inactive)
GI50 (NCI-H23): 14.9 µM (inactive)
GI50 (HCC 2998): 14.2 µM (inactive)
GI50 (LOX IMVI): 16 µM (inactive)
GI50 (HOP-92): 16.4 µM (inactive)
GI50 (SK-MEL-5): 14.6 µM (inactive)
GI50 (HL-60): < 0.01 µM (active)
GI50 (UACC-257): 17.5 µM (inactive)
GI50 (PC-3): 10.3 µM (inactive)
GI50 (UO-31): 19.1 µM (inactive)
GI50 (ACHN): 17.1 µM (inactive)
GI50 (SK-MEL-28): 16.7 µM (inactive)
GI50 (TK-10): 17.4 µM (inactive)
GI50 (CAKI-1): 15.5 µM (inactive)
GI50 (OVCAR-3): 15.2 µM (inactive)
GI50 (NCI-H460): 14.3 µM (inactive)
GI50 (MDA-MB-231): 17.3 µM (inactive)
GI50 (SK-MEL-2): 16.4 µM (inactive)
GI50 (U-251): 16.4 µM (inactive)
GI50 (K562): 12.6 µM (inactive)
GI50 (HT-29): 14.5 µM (inactive)
GI50 (SK-OV-3): 20.5 µM (inactive)
GI50 (MCF7): 17.3 µM (inactive)
GI50 (Hs-578T): 17.1 µM (inactive)
GI50 (T47D): 7.06 µM (inactive)

CC(C)SC(C)(NC(=O)C1C(C)(C)CCC1(C)C)C(=O)O (stereo not drawn)
GI50 (SW-620): > 100 µM (inactive)
GI50 (SNB-19): > 100 µM (inactive)
GI50 (M14): > 100 µM (inactive)
GI50 (MDA-N): > 100 µM (inactive)
GI50 (OVCAR-5): > 100 µM (inactive)
GI50 (A498): > 100 µM (inactive)
GI50 (RPMI-8226): > 100 µM (inactive)
GI50 (SF-268): > 100 µM (inactive)
GI50 (SR): > 100 µM (inactive)
GI50 (HCT-116): > 100 µM (inactive)
GI50 (SN12C): > 100 µM (inactive)
GI50 (NCI-H226): > 100 µM (inactive)
GI50 (COLO 205): > 100 µM (inactive)
GI50 (A549): > 100 µM (inactive)
GI50 (MOLT-4): > 100 µM (inactive)
GI50 (EKVX): > 100 µM (inactive)
GI50 (SF-539): > 100 µM (inactive)
GI50 (HOP-62): > 100 µM (inactive)
GI50 (786-0): > 100 µM (inactive)
GI50 (CCRF-CEM): > 100 µM (inactive)
GI50 (HCT-15): > 100 µM
GI50 (DU-145): > 100 µM (inactive)
GI50 (NCI/ADR-RES): > 100 µM (inactive)
GI50 (MDA-MB-435): > 100 µM (inactive)
GI50 (NCI-H23): > 100 µM (inactive)
GI50 (HCC 2998): > 100 µM (inactive)
GI50 (LOX IMVI): > 100 µM (inactive)
GI50 (HOP-92): > 100 µM (inactive)
GI50 (SK-MEL-5): > 100 µM (inactive)
GI50 (HL-60): > 100 µM (inactive)
GI50 (PC-3): > 100 µM (inactive)
GI50 (UO-31): > 100 µM (inactive)
GI50 (ACHN): > 100 µM (inactive)
GI50 (SK-MEL-28): > 100 µM (inactive)
GI50 (SNB-75): > 100 µM (inactive)
GI50 (TK-10): > 100 µM (inactive)
GI50 (NCI-H460): > 100 µM (inactive)
GI50 (MDA-MB-231): > 100 µM (inactive)
GI50 (SK-MEL-2): > 100 µM (inactive)
GI50 (U-251): > 100 µM (inactive)
GI50 (K562): > 100 µM (inactive)
GI50 (SK-OV-3): > 100 µM (inactive)
GI50 (MCF7): > 100 µM (inactive)
GI50 (Hs-578T): > 100 µM (inactive)
GI50 (T47D): > 100 µM (inactive)

From ChEMBL document CHEMBL1201862, “PubChem BioAssay data set” (2004)
